Assay results from patent US20090110671A1, “AGENT FOR ENHANCHING THE PRODUCTION OF COLLAGEN AND IT'S USE” (priority 2005, published 2009).

How the values were obtained:
NHDF cells [1] = experiment: Experiment 2: collagen sedimented over cell surface and released in supernatant of NHDF cells, α,α-trehalose or maltose with AA-2G; assay type: cell-based, human
Protocol: Influence of α,α-trehalose and maltose on collagen production using NHDF cells was examined by the following experiment: Test solutions were prepared by dissolving either AA-2G; hydrous crystalline α,α-trehalose, a reagent grade specimen, commercialized by Hayashibara Biochemical Laboratories Inc., Okayama, Japan; or hydrous crystalline maltose, a reagent grade specimen, commercialized by Hayashibara Biochemical Laboratories Inc., Okayama; Japan, in […] The methods for culturing NHDF cells and quantifying the collagen-production level of the cells were conducted similarly as in Experiment 1. The collagen level in each culture supernatant of NHDF cells was determined in such a manner of collecting the culture supernatant and quantifying the collagen released in the supernatant by using “Sircol Collagen Quantification Kit”. As a control, D-MEM medium containing 50 μM AA-2G was used. These control and test solutions were respectively experimented using three wells, followed by calculating a mean value for collagen-production levels in the wells. The results are in Table 2 where the values are expressed with relative values for either or both of the levels of collagen, that had sedimented over the cell surfaces or released in the supernatants, in terms of their collagen-production levels of NHDF cells, which had been cultured in D-MEM medium containing 50 μM AA-2G, being regarded as 100.

[2] = system: skin wrinkles/finely-wrinkles and flabby skin; experiment: Experiment 5: self-evaluation of lotions on skin wrinkles/finely-wrinkles and flabby skin, four months; assay type: in vivo, human; conditions: lotion, no saccharide, 3 times a day, 4 months
Protocol: The following experiment was conducted to examine the influence of α,α-trehalose or saccharide derivatives thereof and hyaluronic acid and/or chondroitin sulfate on the skin. Since there exists a relatively constant amount of L-ascorbic acid in vivo, the collagen production by L-ascorbic acid proceeds constantly. Based on the following basic formulation for lotion and the combination and composition in Table 5, 100 parts by weights of a lotion was prepared by adding to the basic formulation sodium hyaluronate, chondroitin sulfate, hydrous crystalline α,α-trehalose, a cosmetic grade specimen commercialized by Hayashibara Biochemical Laboratories Inc., Okayama, Japan, and “[…]”, a product name of a syrup having a solid content of about 75% and containing, on a dry solid basis, about 53% by weight of α-maltosyl α,α-trehalose and about 5% by weight of other saccharide derivatives of α,α-trehalose, and an adequate amount of refined water. In Table 5, the respective amounts of the added saccharide are expressed on a dry solid basis. The syrup containing saccharide derivatives of α,α-trehalose was added in an amount of the saccharide derivatives as shown in Table 5. Eleven women as volunteers, who had been suffering from skin wrinkles/finely-wrinkles or flabby skin, were allowed to wash their faces with any of the lotions having compositions in Table 5 three times a day for four months and then allowed to evaluate themselves about their face-skin conditions by comparing with those before use of the lotions.

NHDF cells [3] = experiment: Experiment 4: collagen production in NHDF cells, saccharides combined with hyaluronic acid and/or chondroitin sulfate; assay type: cell-based, human
Excerpt: Influence of α,α-trehalose or a saccharide derivative thereof, or a combination use of any of these saccharides and hyaluronic acid and/or chondroitin sulfate on the collagen production by L-ascorbic acids was examined as follows. AA-2G and any one of hydrous crystalline α,α-trehalose, a reagent grade specimen commercialized by Hayashibara Biochemical Laboratories Inc., Okayama, Japan; α-maltosyl α,α-trehalose with a purity of at least 98% commercialized by Hayashibara Biochemical Laboratories Inc., Okayama, Japan; and “HALLODEX”, a product name of a syrup of saccharide derivatives of α,α-trehalose were dissolved in D-MEM medium to give final concentrations of 50 μM of AA-2G and 15.0 mg/ml of saccharides. Further, as another test solutions, those, which had been prepared similarly as in the above, were admixed with any one of hyaluronic acid, chondroitin sulfate, and a combination thereof to give respective concentrations of 1 mg/ml, 1 mg/ml, and 0.5 mg/ml of hyaluronic acid and chondroitin sulfate each. The medium supplemented with a syrup containing about 59%, d.s.b., of saccharide derivatives of α,α-trehalose was prepared to give a concentration of 15.0 mg/ml of the saccharide derivatives of α,α-trehalose contained in the syrup. The culture of NHDF cells and the quantification of collagen-production level thereof were carried out similarly as in Experiment 1. The results are in Table 4 where the values are expressed with relative values in terms of the collagen-production level of NHDF cells, being regarded as 100, when cultured in D-MEM medium containing AA-2G.

[4] = system: NHDF cells (normal human dermal fibroblast cell); experiment: Experiment 1: collagen production in NHDF cells (Sircol kit), α,α-trehalose with AA-2G; assay type: cell-based; conditions: D-MEM with 50 μM AA-2G, no α,α-trehalose; reference regarded as 100
Protocol: Using “fibrocell NHDF”, a normal human dermal fibroblast cell, commercialized by Kurashiki Spinning Co., Ltd., Okayama, Japan (abbreviated as “NHDF cells”, hereinafter), experiment for studying the influence of α,α-trehalose on the collagen production by L-ascorbic acids was conducted based on the method described in Bioscience, Biotechnology, and Biochemistry, Vol. 68, No. 4, pp. 767-773, 2004. The method is outlined below: Test solutions were prepared by dissolving L-ascorbic acid 2-glucoside, a reagent grade specimen commercialized by Hayashibara Biochemical Laboratories Inc., Okayama, Japan (may be abbreviated as “AA-2G”, hereinafter), and α,α-trehalose, a reagent grade specimen commercialized by Hayashibara Biochemical Laboratories Inc., Okayama, Japan, in Dulbecco […] essential medium containing 10% (v/v) fetal calf serum and an antibiotic (abbreviated as “D-MEM”, hereinafter) to give a final concentration of 50 μM/ml of AA-2G and a final concentration of 7.5, 15 or 30 mg/ml of α,α-trehalose. NHDF cells, which had been successively cultured in D-MEM medium, were collected, re-suspended in a fresh preparation of D-MEM medium, inoculated to 96-well microplates at a cell concentration of 2.5×10^4 cells/200 μl/well, and cultured for 24 hours. Thereafter, the supernatants of the cultures were removed by sucking, and further cultured for five days after addition of any of the test solutions in a volume of 200 μl/well. As controls, the cells, which had been cultured for 24 hours, were further cultured for five days after addition of 200 μl/well of D-MEM medium, D-MEM medium supplemented with α,α-trehalose at a concentration of 30 mg/ml, or D-MEM medium supplemented with AA-2G at a concentration of 50 μM/ml. After completion of culturing, the supernatants of the cultures were removed by sucking, admixed with 50 μl/well of 1 M acetic acid solution containing 1 mg/ml of pepsin, and shaken for four hours to solubilize collagen adhered to the cell surfaces, followed by quantifying the content of collagen accumulated in the cells using “Sircol Collagen Quantification Kit”, commercialized by Biocolor Ltd. These control and test solutions were respectively experimented with three wells, followed by calculating a mean value for collagen-production levels in the wells. All the cultures of the NHDF cells were conducted in a 5% (v/v) CO2 incubator. The results are in Table 1 where the values are expressed with relative values in terms of the collagen-production level of NHDF cells, which had been cultured in D-MEM medium containing AA-2G, being regarded as 100.

NHDF cells [5] = experiment: Experiment 3: collagen production in NHDF cells, α,α-trehalose and saccharide derivatives with or without AA-2G; assay type: cell-based, human
Protocol: Based on the confirmation that α,α-trehalose has an action of enhancing the collagen production by L-ascorbic acid, it was experimented as follows to confirm whether saccharide derivatives of α,α-trehalose have such a similar action and effect. Test solutions were prepared by dissolving in D-MEM medium any one of AA-2G, hydrous crystalline α,α-trehalose, a reagent grade specimen with a purity of at least 98%, commercialized by Hayashibara Biochemical Laboratories Inc., Okayama, Japan; “HALLODEX”, a product name of a syrup of saccharide derivatives of α,α-trehalose, having a solid content of about 75% and containing, on a dry solid basis, about 53% of α-maltosyl α,α-trehalose and about 5% of other saccharide derivatives of α,α-trehalose in total, to give final concentrations of 50 μM of AA-2G and 15.0 mg/ml of saccharides. As a control, test solutions were prepared by dissolving in D-MEM medium either of the above hydrous crystalline α,α-trehalose, α-maltosyl α,α-trehalose, or syrup of saccharide derivatives of α,α-trehalose to give a final concentration of 15.0 mg/ml. The medium admixed with the syrup containing saccharide derivatives of α,α-trehalose was adjusted to give a concentration of 15.0 mg/ml of saccharide derivatives of α,α-trehalose. The culture of NHDF cells and the quantification of collagen-production level thereof were carried out similarly as in Experiment 1. The results are in Table 3, where the values are expressed with relative values in terms of the collagen production level of NHDF cells, being regarded as 100, when cultured in D-MEM medium containing AA-2G.

[6] = saccharide 0.2 mg/ml + 50 μM AA-2G, relative to AA-2G = 100
[7] = saccharide 0.6 mg/ml + 50 μM AA-2G, relative to AA-2G = 100
[8] = saccharide 1.7 mg/ml + 50 μM AA-2G, relative to AA-2G = 100
[9] = saccharide 5.0 mg/ml + 50 μM AA-2G, relative to AA-2G = 100
[10] = saccharide 15.0 mg/ml + 50 μM AA-2G, relative to AA-2G = 100
[11] = sodium hyaluronate 0.5 part by weight
[12] = D-MEM containing 50 μM AA-2G alone, reference regarded as 100
[13] = chondroitin sulfate 0.5 part by weight

OC[C@H]1O[C@H](O[C@H]2[C@H](O)[C@@H](O)C(O)O[C@@H]2CO)[C@H](O)[C@@H](O)[C@@H]1O (mixture of isomers) [maltose]
Collagen-production level, In supernatant (NHDF cells [1]; [6]): 101
Collagen-production level, Total (NHDF cells [1]; [6]): 99
Collagen-production level, In supernatant (NHDF cells [1]; [7]): 134
Collagen-production level, Total (NHDF cells [1]; [7]): 92
Collagen-production level, In supernatant (NHDF cells [1]; [8]): 288
Collagen-production level, Total (NHDF cells [1]; [8]): 97
Collagen-production level, In supernatant (NHDF cells [1]; [9]): 256
Collagen-production level, Total (NHDF cells [1]; [9]): 61
Collagen-production level, In supernatant (NHDF cells [1]; [10]): 228
Collagen-production level, Total (NHDF cells [1]; [10]): 44

sodium hyaluronate
Evaluation A (remarkably efficacious) [2, 11]: 0 number of volunteers
Evaluation B (efficacious) [2, 11]: 0 number of volunteers
Evaluation C (slightly efficacious) [2, 11]: 2 number of volunteers
Evaluation D (inefficacious) [2, 11]: 9 number of volunteers
Collagen-production level (NHDF cells [3]; no saccharide, 50 μM AA-2G + sodium hyaluronate 1 mg/ml): 98

O=C1O[C@H]([C@@H](O)CO)C(O)=C1O[C@H]1O[C@H](CO)[C@@H](O)[C@H](O)[C@H]1O [AA-2G, L-ascorbic acid 2-glucoside, reference compound]
Collagen-production level [4]: 100
Collagen-production level (NHDF cells [5]; no saccharide, 50 μM AA-2G added, reference regarded as 100): 100
Collagen-production level, In supernatant (NHDF cells [1]; [12]): 100
Collagen-production level, Total (NHDF cells [1]; [12]): 100
Collagen-production level (NHDF cells [3]; no saccharide, 50 μM AA-2G alone, reference regarded as 100): 100

OC[C@H]1O[C@H](O[C@H]2O[C@H](CO)[C@@H](O[C@H]3O[C@H](CO)[C@@H](O[C@H]4O[C@H](CO)[C@@H](O)[C@H](O)[C@H]4O)[C@H](O)[C@H]3O)[C@H](O)[C@H]2O)[C@H](O)[C@@H](O)[C@@H]1O [α-Maltosyl α,α-trehalose, α-maltosyl α,α-trehalose]
Collagen-production level (NHDF cells [5]; [10]): 182
Collagen-production level (NHDF cells [5]; saccharide 15.0 mg/ml, AA-2G not added, relative to AA-2G = 100): 39
Collagen-production level (NHDF cells [3]; saccharide 15.0 mg/ml + 50 μM AA-2G): 158
Collagen-production level (NHDF cells [3]; saccharide 15.0 mg/ml + 50 μM AA-2G + chondroitin sulfate 1 mg/ml): 188
Collagen-production level (NHDF cells [3]; saccharide 15.0 mg/ml + 50 μM AA-2G + hyaluronate and chondroitin sulfate 0.5 mg/ml each): 276
Collagen-production level (NHDF cells [3]; saccharide 15.0 mg/ml + 50 μM AA-2G + sodium hyaluronate 1 mg/ml): 199
Collagen-production level (NHDF cells [3]; saccharide 15.0 mg/ml alone, no AA-2G, no hyaluronate, no chondroitin sulfate): 39

chondroitin sulfate
Evaluation A (remarkably efficacious) [2, 13]: 0 number of volunteers
Evaluation B (efficacious) [2, 13]: 0 number of volunteers
Evaluation C (slightly efficacious) [2, 13]: 1 number of volunteers
Evaluation D (inefficacious) [2, 13]: 10 number of volunteers
Collagen-production level (NHDF cells [3]; no saccharide, 50 μM AA-2G + chondroitin sulfate 1 mg/ml): 97
